Source: patent US20210214375A1 (LUNDBECK LA JOLLA RESEARCH CENTER, INC., priority 2017, published 2021)
Where two headings read alike, the source gives them in different places.

Assays:
MAGL [1] = biological target: T1, MAGL (Homo sapiens, UniProt Q99685); test: In vitro competitive activity-based protein profiling (gel-based, FP-Rh or HT-01 probe); format: biochemical
T1 construct: Proteomes (human prefrontal cortex or cell membrane fractions); from tissue
T1 sequence (Q99685 1-303): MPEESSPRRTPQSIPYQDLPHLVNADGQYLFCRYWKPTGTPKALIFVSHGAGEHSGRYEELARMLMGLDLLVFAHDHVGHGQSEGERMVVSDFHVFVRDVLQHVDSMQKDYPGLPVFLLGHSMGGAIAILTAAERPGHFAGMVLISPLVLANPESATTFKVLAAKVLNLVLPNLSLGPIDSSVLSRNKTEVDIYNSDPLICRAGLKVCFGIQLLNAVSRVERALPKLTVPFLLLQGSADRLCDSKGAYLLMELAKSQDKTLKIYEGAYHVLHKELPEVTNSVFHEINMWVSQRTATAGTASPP
Method in brief: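 Readout is SDS-PAGE of probe-labelled proteome after FP-Rh or HT-01 (1.0 μL, 50 μM stock) labelling for 30 min at room temperature. Beforehand, inhibitors at varying concentrations were preincubated 30 min at 37° C with human prefrontal cortex or cell membrane fractions at 1.0 mg/mL total protein.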

MAGL [2] = biological target: T2, MAGL (Mus musculus, UniProt O35678); test: Mouse brain proteomes from inhibitor treated mice (oral gavage, brain proteomes analyzed 4 h after administration); format: in vivo, mouse (C57Bl/6J); conditions: brain proteome 4 h after administration, read-out: % Inh 5 mg/kg MGLL (Mouse)
T2 construct: from tissue; host or cells: brain of wild-type C57Bl/6J mice
T2 sequence (O35678 1-303): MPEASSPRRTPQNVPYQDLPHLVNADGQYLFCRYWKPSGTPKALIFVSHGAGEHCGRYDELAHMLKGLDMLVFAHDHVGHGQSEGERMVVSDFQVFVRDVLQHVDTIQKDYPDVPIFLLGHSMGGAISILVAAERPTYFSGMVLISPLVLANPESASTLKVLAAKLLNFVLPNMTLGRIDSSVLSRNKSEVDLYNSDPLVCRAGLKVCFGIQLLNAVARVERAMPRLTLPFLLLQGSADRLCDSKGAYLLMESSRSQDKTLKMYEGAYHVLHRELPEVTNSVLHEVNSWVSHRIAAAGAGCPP
Method: Compounds are tested to assess their MAGL and serine hydrolase activity using the following in vitro and in vivo assays.
Preparation of Mouse Brain Proteomes from Inhibitor Treated Mice.
Inhibitors were administered to wild-type C57Bl/6J by oral gavage in a vehicle of polyethylene glycol. Each animal was sacrificed 4 h following administration and brain proteomes were prepared and analyzed according to previously established methods (See Niphakis, M. J., et al. (2011) ACS Chem. Neurosci. and Long, J. Z., et al. Nat. Chem. Biol. 5:37-44).

[3] = PC3 proteome, read-out: IC50 MGLL PC3 (Human)
[4] = PFC (prefrontal cortex) proteome

| Compound | IC50 (MAGL [1]; [3]) | % Inh MGLL PFC (Human, μM) (MAGL [1]; [4]) | inhibition at 5 mg/kg (MAGL [2]) | IC50 (MAGL [1]; PFC (prefrontal cortex) proteome, read-out: IC50 MGLL PFC (Human)) |
| --- | --- | --- | --- | --- |
| O=C(OC(C(F)(F)F)C(F)(F)F)N1CCC2(CCCN2Cc2cc(F)cc(C3(C(=O)O)CCCC3)c2)CC1 [Example 4, 1-(3-Fluoro-5-((8-(((1,1,1,3,3,3-hexafluoropropan-2-yl)oxy)carbonyl)-1,8-diazaspiro[4.5]decan-1-yl)methyl)phenyl)cyclopentane-1-carboxylic acid] | < 100 nM | ### (### is ≥ 75%) | ≥ 75% |  |
| CC(C)(C#Cc1cc(C(F)(F)F)ccc1CN1CCCC12CCN(C(=O)OC(C(F)(F)F)C(F)(F)F)CC2)C(=O)O [Example 5, 4-(2-((8-(((1,1,1,3,3,3-Hexafluoropropan-2-yl)oxy)carbonyl)-1,8-diazaspiro[4.5]decan-1-yl)methyl)-5-(trifluoromethyl)phenyl)-2,2-dimethylbut-3-ynoic acid] | < 100 nM |  | ≥ 75% |  |
| O=C(OC(C(F)(F)F)C(F)(F)F)N1CCC2(CCCN2Cc2ccc(C(F)(F)F)cc2C2(C(=O)O)CCCC2)CC1 [Example 7, 1-(2-((8-(((1,1,1,3,3,3-hexafluoropropan-2-yl)oxy)carbonyl)-1,8-diazaspiro[4.5]decan-1-yl)methyl)-5-(trifluoromethyl)phenyl)cyclopentane-1-carboxylic acid] | < 100 nM |  | ≥ 75% |  |
| CN(Cc1cccc(Cl)c1C1(C(=O)O)CCCC1)C1(C)CCN(C(=O)OC(C(F)(F)F)C(F)(F)F)CC1 [Example 9, 1-(2-Chloro-6-(((1-(((1,1,1,3,3,3-hexafluoropropan-2-yl)oxy)carbonyl)-4-methylpiperidin-4-yl)(methyl)amino)methyl)phenyl)cyclopentane-1-carboxylic acid] | < 100 nM | ### (### is ≥ 75%) | ≤ 25% |  |
| O=C(O)C1CCN(Cc2cc(C(F)(F)F)ccc2C(=O)N2CCCC23CCN(C(=O)OC(C(F)(F)F)C(F)(F)F)CC3)CC1 [Example 10, 1-(2-(8-(((1,1,1,3,3,3-Hexafluoropropan-2-yl)oxy)carbonyl)-1,8-diazaspiro[4.5]decane-1-carbonyl)-5-(trifluoromethyl)benzyl)piperidine-4-carboxylic acid] |  | ### (### is ≥ 75%) | ≥ 75% |  |
| CN(Cc1ccc(C(F)(F)F)cc1N1CCC(C(=O)O)CC1)C1(C)CCN(C(=O)OC(C(F)(F)F)C(F)(F)F)CC1 [Example 14, 1-(2-(((1-(((1,1,1,3,3,3-Hexafluoropropan-2-yl)oxy)carbonyl)-4-methylpiperidin-4-yl)(methyl)amino)methyl)-5-(trifluoromethyl)phenyl)piperidine-4-carboxylic acid] | < 100 nM |  | ≥ 75% |  |
| CC1(C(=O)O)CCCN(c2cc(C(F)(F)F)ccc2CN2CC3(CCN(C(=O)OC(C(F)(F)F)C(F)(F)F)CC3)C2)C1 (stereo not drawn) [Example 112, 1-(2-((7-(((1,1,1,3,3,3-Hexafluoropropan-2-yl)oxy)carbonyl)-2,7-diazaspiro[3.5]nonan-2-yl)methyl)-5-(trifluoromethyl)phenyl)-3-methylpiperidine-3-carboxylic acid] | < 100 nM |  | ≤ 25% |  |
| CC1(C(=O)O)CCCN(c2cc(CN3CC4(CCN(C(=O)OC(C(F)(F)F)C(F)(F)F)CC4)C3)cc(C(F)(F)F)c2)C1 (stereo not drawn) [Example 114, 1-(3-((7-(((1,1,1,3,3,3-Hexafluoropropan-2-yl)oxy)carbonyl)-2,7-diazaspiro[3.5]nonan-2-yl)methyl)-5-(trifluoromethyl)phenyl)-3-methylpiperidine-3-carboxylic acid] | < 100 nM |  | 25 to 75% | < 100 nM |
| CN(Cc1ccc(C(F)(F)F)cc1N1CCC(C(=O)O)C1)C1(C)CCN(C(=O)OC(C(F)(F)F)C(F)(F)F)CC1 (stereo not drawn) [Example 118, 1-(2-(((1-(((1,1,1,3,3,3-Hexafluoropropan-2-yl)oxy)carbonyl)-4-methylpiperidin-4-yl)(methyl)amino)methyl)-5-(trifluoromethyl)phenyl)pyrrolidine-3-carboxylic acid] | < 100 nM |  | ≥ 75% |  |
| CC1(N(CC(=O)O)Cc2ccc(C(F)(F)F)cc2N2CCOCC2)CCN(C(=O)OC(C(F)(F)F)C(F)(F)F)CC1 [Example 124, N-(1-(((1,1,1,3,3,3-Hexafluoropropan-2-yl)oxy)carbonyl)-4-methylpiperidin-4-yl)-N-(2-morpholino-4-(trifluoromethyl)benzyl)glycine] | < 100 nM |  | ≥ 75% |  |
| O=C(O)CN1CC2CC1CN2c1cc(CN2CCC3(CCN(C(=O)OC(C(F)(F)F)C(F)(F)F)CC3)C2)cc(C(F)(F)F)c1 (stereo not drawn) [Example 125, 2-(5-{3-[(8-{[(1,1,1,3,3,3-Hexafluoropropan-2-yl)oxy]carbonyl}-2,8-diazaspiro[4.5]decan-2-yl)methyl]-5-(trifluoromethyl)phenyl}-2,5-diazabicyclo[2.2.1]heptan-2-yl)acetic acid] | < 100 nM |  | ≤ 25% |  |
| O=C(O)CN1CC2CC1CN2c1cc(C(F)(F)F)ccc1CN1CCCC12CCN(C(=O)OC(C(F)(F)F)C(F)(F)F)CC2 (stereo not drawn) [Example 126, 2-(5-{2-[(8-{[(1,1,1,3,3,3-Hexafluoropropan-2-yl)oxy]carbonyl}-1,8-diazaspiro[4.5]decan-1-yl)methyl]-5-(trifluoromethyl)phenyl}-2,5-diazabicyclo[2.2.1]heptan-2-yl)acetic acid] | < 100 nM |  | ≤ 25% |  |
| O=C(O)CN1CC2CC1CN2c1cc(C(F)(F)F)ccc1CN1CC2(CCN(C(=O)OC(C(F)(F)F)C(F)(F)F)CC2)C1 (stereo not drawn) [Example 127, 2-(5-{2-[(7-{[(1,1,1,3,3,3-Hexafluoropropan-2-yl)oxy]carbonyl}-2,7-diazaspiro[3.5]nonan-2-yl)methyl]-5-(trifluoromethyl)phenyl}-2,5-diazabicyclo[2.2.1]heptan-2-yl)acetic acid] | < 100 nM |  | ≤ 25% |  |
| O=C(O)CN1CC2CC1CN2c1cc(CN2CCCC23CCN(C(=O)OC(C(F)(F)F)C(F)(F)F)CC3)cc(C(F)(F)F)c1 (stereo not drawn) [Example 128, 2-(5-{3-[(8-{[(1,1,1,3,3,3-Hexafluoropropan-2-yl)oxy]carbonyl}-1,8-diazaspiro[4.5]decan-1-yl)methyl]-5-(trifluoromethyl)phenyl}-2,5-diazabicyclo[2.2.1]heptan-2-yl)acetic acid] | < 100 nM |  | ≤ 25% |  |
| CC1(C(=O)O)CN(c2cc(C(F)(F)F)ccc2CN2CC3(CCN(C(=O)OC(C(F)(F)F)C(F)(F)F)CC3)C2)CCO1 (stereo not drawn) [Example 130, 4-(2-((7-(((1,1,1,3,3,3-Hexafluoropropan-2-yl)oxy)carbonyl)-2,7-diazaspiro[3.5]nonan-2-yl)methyl)-5-(trifluoromethyl)phenyl)-2-methylmoipholine-2-carboxylic acid] | < 100 nM |  | ≤ 25% |  |
| CN(Cc1ccc(C(F)(F)F)cc1C1(C(=O)O)CCCC1)C1(C)CCN(C(=O)OC(C(F)(F)F)C(F)(F)F)CC1 [Example 133, 1-(2-{[(1-{[(1,1,1,3,3,3-Hexafluoropropan-2-yl)oxy]carbonyl}-4-methylpiperidin-4-yl)(methyl)amino]methyl}-5-(trifluoromethyl)phenyl)cyclopentane-1-carboxylic acid] | < 100 nM | ### (### is ≥ 75%) | ≥ 75% |  |
